TGI data for 11 compounds are collected here from PubChem BioAssay (NCI).

Each structure is given as a SMILES string.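 Results reflect a 48-hour exposure of cells in 96-well plates to compound at five concentrations. The concentration for full growth arrest is given as TGI.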

Some test systems named below: HOP-18 NSCLC; LXFL 529 NSCLC; RXF-631 renal; SN12K1 renal; P388/ADR leukemia; P388 leukemia.
Holding throughout (assay): NCI tumour cell line growth inhibition, 48 h

For `CC1C(=O)O[C@H]2C1CC[C@@]1(C)[C@H](O)CC[C@@]13C[C@]2(O)OO3` (stereo not given in full), the TGI in the assay with HOP-18 NSCLC and with LXFL 529 NSCLC was above 100 µM each time.
For `CCOP(=O)(OCC)C1=NC=CC=CC1n1c(-c2ccccc2)nn(CC)c1=O` (stereo not given), the TGI in the assay with HOP-18 NSCLC, with RXF-631 renal and in the assay on LXFL 529 NSCLC was above 100 µM throughout.
Turning to `O=c1c2ccccc2[nH]c2cc(O)cc(O)c12`, the TGI with HOP-18 NSCLC and in the assay on LXFL 529 NSCLC was above 100 µM throughout.
Regarding `CCCCCCC(C)OC(=O)/C=C(\CC(=O)OC(C)CCCCCC)C(=O)OC(C)CCCCCC` (stereo not given), in the assay with LXFL 529 NSCLC, the TGI is above 100 µM.
Regarding `CCCCCCCCCCCCCCCCCCOCC(COP(=O)([O-])OCC[N+](C)(C)C)OC` (stereo not given), the TGI stood at 27.5 µM in the assay on HOP-18 NSCLC, 24.3 µM in the assay on SN12K1 renal, 20 µM with P388/ADR leukemia and 11 µM with P388 leukemia.
`CCN(CC)CCCC(C)NC(=O)c1ccc2c(c1)C(=O)c1ccccc1C2=O` (stereo not given): the TGI is above 100 µM in the assay on HOP-18 NSCLC, 65.5 µM in the assay on RXF-631 renal and 66.9 µM in the assay on LXFL 529 NSCLC.
In the case of `C/C(=N\N=C(N)N)C(CN(C)C)C(c1ccccc1)c1c(O)c2ccccc2oc1=O` (stereo not given), the TGI with HOP-18 NSCLC and in the assay with LXFL 529 NSCLC was above 100 µM in each case.
Turning to `CC(C)C(=O)/C=C/c1ccc(Cl)c(Cl)c1`, the TGI was found to be 23.5 µM in the assay with HOP-18 NSCLC and 40.2 µM in the assay on LXFL 529 NSCLC.
For `O=C1c2ccccc2C(=O)c2c(O)ccc(O)c21`, the TGI in the assay on LXFL 529 NSCLC is above 100 µM.
On to `COc1cc(C2c3cc4c(cc3[C@@H](Nc3cccc([N+](=O)[O-])c3)C3COC(=O)[C@H]23)OCO4)cc(OC)c1O` (stereo not given in full), for which the TGI was 39.3 µM with HOP-18 NSCLC, 10.3 µM with SN12K1 renal and 5.58 µM in the assay with P388/ADR leukemia.
As for `CS(=O)(=O)OCCCOS(C)(=O)=O`, the TGI in the assay on HOP-18 NSCLC and with LXFL 529 NSCLC was above 100 µM throughout.
